# According to ChEMBL document CHEMBL1201862, “PubChem BioAssay data set” (2004):
# Active and inactive are the calls of the source.
# Columns and labels:
# Hexokinase-1 = Hexokinase-1 (Homo sapiens, UniProt P19367); assay: hexokinase 1 activators, dose response, selectivity assay for HKDC1 activator project, biochemical (AID 504762); assay type: functional
# [1] = biological target: T1, Microphthalmia-associated transcription factor (Homo sapiens, UniProt O75030); assay: TRPM1 promoter luciferase signal decrease, dose response, MITF inhibitor project, cell-based, SK-MEL-5, cherry-picked, set 3 (AID 493073); assay type: functional
# T1 sequence (O75030 whole entry): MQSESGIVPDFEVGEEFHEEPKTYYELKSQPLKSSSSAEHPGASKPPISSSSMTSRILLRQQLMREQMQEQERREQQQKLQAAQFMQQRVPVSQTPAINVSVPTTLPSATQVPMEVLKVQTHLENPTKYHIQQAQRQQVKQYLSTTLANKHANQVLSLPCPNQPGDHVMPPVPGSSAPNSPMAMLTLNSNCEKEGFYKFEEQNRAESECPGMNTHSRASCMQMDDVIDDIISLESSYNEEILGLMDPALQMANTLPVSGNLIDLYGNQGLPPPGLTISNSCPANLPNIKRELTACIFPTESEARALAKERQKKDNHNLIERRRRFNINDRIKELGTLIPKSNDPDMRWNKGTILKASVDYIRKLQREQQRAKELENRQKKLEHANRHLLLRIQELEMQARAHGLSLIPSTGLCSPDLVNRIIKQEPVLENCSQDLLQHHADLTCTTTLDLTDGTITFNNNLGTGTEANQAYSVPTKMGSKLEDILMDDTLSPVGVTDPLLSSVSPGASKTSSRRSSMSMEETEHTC
# [2] = biological target: Latent membrane protein 1 (Human herpesvirus 4 (strain B95-8), UniProt P03230); assay: TES1-eGFP NF-kB reporter inhibition versus Tet-On dsRED, dose response, selectivity assay for LMP1 NF-kB inhibitor project, imaging, HEK293T, dual-color eGFP/dsRED, cherry-picks (AID 588398); assay type: functional, cell-based
# [3] = biological target: Heat shock protein HSP 90-alpha (Homo sapiens, UniProt P07900); assay type: functional, organism-based
# Nonstructural protein 1 = Nonstructural protein 1 (Influenza A virus, UniProt Q194T2); assay type: functional, Influenza A virus (A/California/07/2009(H1N1))
# HEK293 = assay: inhibitors of LMP1-driven NF-kB reporter, dose response, cell-based, HEK293, luciferase, cherry-pick (AID 588343); assay type: functional; conditions: Homo sapiens
# [4] = biological target: Botulinum neurotoxin type F (Clostridium botulinum, UniProt P30996); assay: High-throughput multiplex microsphere dose response for inhibitors of toxin protease, specifically Botulinum neurotoxin light chain F protease, compounds from Cherry Pick 02.; assay type: functional; conditions: read-out: EC50_MICROM
# Lethal factor = Lethal factor (Bacillus anthracis, UniProt P15917); assay: High-throughput multiplex microsphere dose response for inhibitors of toxin protease, specifically Lethal Factor protease, compounds from Cherry Pick 02.; assay type: functional; conditions: read-out: EC50_MICROM
# [5] = biological target: Botulinum neurotoxin type A (Clostridium botulinum (strain Hall / ATCC 3502 / NCTC 13319 / Type A), UniProt P0DPI1); assay: High-throughput multiplex microsphere dose response for inhibitors of toxin protease, specifically Botulinum neurotoxin light chain A protease, compounds from Cherry Pick 02.; assay type: functional; conditions: read-out: EC50_MICROM
# Hexokinase HKDC1 = biological target: T2, Hexokinase HKDC1 (Homo sapiens, UniProt Q2TB90); assay: HKDC1 hexokinase activators, dose response, biochemical, W721R variant (AID 504730); assay type: functional
# T2 sequence (Q2TB90 whole entry): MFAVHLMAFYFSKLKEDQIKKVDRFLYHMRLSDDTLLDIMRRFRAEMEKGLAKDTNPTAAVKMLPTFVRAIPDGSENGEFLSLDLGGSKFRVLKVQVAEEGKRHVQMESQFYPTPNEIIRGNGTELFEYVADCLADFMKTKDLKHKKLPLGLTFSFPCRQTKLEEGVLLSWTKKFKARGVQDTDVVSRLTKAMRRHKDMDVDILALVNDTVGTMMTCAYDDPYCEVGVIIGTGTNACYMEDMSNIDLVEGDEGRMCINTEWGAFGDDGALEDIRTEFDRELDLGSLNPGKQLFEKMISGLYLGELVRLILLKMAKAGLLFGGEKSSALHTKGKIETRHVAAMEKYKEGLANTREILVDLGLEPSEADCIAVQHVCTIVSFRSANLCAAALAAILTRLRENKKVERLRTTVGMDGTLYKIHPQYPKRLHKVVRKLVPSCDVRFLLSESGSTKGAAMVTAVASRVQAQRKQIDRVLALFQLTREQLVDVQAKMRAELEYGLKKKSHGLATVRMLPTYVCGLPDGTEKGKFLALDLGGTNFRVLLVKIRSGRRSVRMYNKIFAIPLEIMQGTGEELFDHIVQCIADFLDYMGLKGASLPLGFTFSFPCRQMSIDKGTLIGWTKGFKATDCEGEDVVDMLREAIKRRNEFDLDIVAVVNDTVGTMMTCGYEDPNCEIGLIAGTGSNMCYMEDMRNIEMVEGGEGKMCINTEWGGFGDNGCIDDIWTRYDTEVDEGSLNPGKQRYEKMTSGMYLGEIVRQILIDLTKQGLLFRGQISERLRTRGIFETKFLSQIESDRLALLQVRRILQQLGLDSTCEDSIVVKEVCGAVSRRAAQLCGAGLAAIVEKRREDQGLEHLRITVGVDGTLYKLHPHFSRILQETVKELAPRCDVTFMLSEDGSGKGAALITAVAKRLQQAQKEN
# Aurora kinase A = Aurora kinase A (Homo sapiens, UniProt O14965); assay type: functional;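 note: value from the Navigating the Kinome kinase panel profiling, panel entry STK6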
# [6] = biological target: Serine/threonine-protein kinase PAK 4 (Homo sapiens, UniProt O96013); assay type: functional;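 note: value obtained within a kinome profiling panel in which PAK4 was one of the panel members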
# [7] = biological target: Mitogen-activated protein kinase kinase kinase kinase 2 (Homo sapiens, UniProt Q12851); assay type: functional;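 note: measured as one member of a kinome-wide kinase panel, with MAP4K2 as the panel entry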
# [8] = biological target: Serine/threonine-protein kinase N2 (Homo sapiens, UniProt Q16513); assay type: functional
# [9] = biological target: Serine/threonine-protein kinase TBK1 (Homo sapiens, UniProt Q9UHD2); assay: Navigating the Kinome. Panel member name: TBK1; assay type: functional
# [10] = biological target: Cyclin-dependent kinase 8 (Homo sapiens, UniProt P49336); assay: Navigating the Kinome. Panel member name: CDK8; assay type: functional
# [11] = biological target: Mitogen-activated protein kinase 14 (Homo sapiens, UniProt Q16539); assay type: functional;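 note: part of a kinome-wide panel, MAPK14 entry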
# [12] = biological target: Platelet-derived growth factor receptor alpha (Homo sapiens, UniProt P16234); assay: Navigating the Kinome. Panel member name: PDGFRA; assay type: functional
# [13] = biological target: 5'-AMP-activated protein kinase catalytic subunit alpha-1 (Homo sapiens, UniProt Q13131); assay type: functional
# [14] = biological target: Inhibitor of nuclear factor kappa-B kinase subunit epsilon (Homo sapiens, UniProt Q14164); assay: Navigating the Kinome. Panel member name: IKBKE; assay type: functional
# [15] = biological target: Tyrosine-protein kinase Fyn (Homo sapiens, UniProt P06241); assay type: functional
# [16] = biological target: Dual specificity tyrosine-phosphorylation-regulated kinase 1A (Homo sapiens, UniProt Q13627); assay type: functional;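 note: measured against DYRK1A as one member of a broad kinome profiling panel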
# [17] = biological target: Vascular endothelial growth factor receptor 2 (Homo sapiens, UniProt P35968); assay type: functional
# [18] = biological target: Tyrosine-protein kinase BTK (Homo sapiens, UniProt Q06187); assay type: functional
# [19] = biological target: Death-associated protein kinase 3 (Homo sapiens, UniProt O43293); assay type: functional;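 note: measured as one member of a kinome-wide profiling panel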
# [20] = biological target: Cyclin-dependent kinase 9 (Homo sapiens, UniProt P50750); assay type: functional;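 note: value from the CDK9 entry of a kinome-spanning kinase panel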
# [21] = biological target: MAP/microtubule affinity-regulating kinase 3 (Homo sapiens, UniProt P27448); assay type: functional;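 note: MARK3 affinity measured as one member of a kinome panel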
# [22] = biological target: Mitogen-activated protein kinase kinase kinase kinase 5 (Homo sapiens, UniProt Q9Y4K4); assay type: functional;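 note: measured as one member of a kinome-spanning kinase panel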
# [23] = biological target: Macrophage colony-stimulating factor 1 receptor (Homo sapiens, UniProt P07333); assay type: functional;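 note: value comes from the Navigating the Kinome screening panel, CSF1R member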
# [24] = biological target: Receptor-type tyrosine-protein kinase FLT3 (Homo sapiens, UniProt P36888); assay type: functional;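 note: FLT3 was tested as one member of a kinome-wide kinase panel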
# [25] = biological target: Insulin-like growth factor 1 receptor (Homo sapiens, UniProt P08069); assay: Navigating the Kinome. Panel member name: IGF1R; assay type: functional
# [26] = biological target: Calcium/calmodulin-dependent protein kinase type II subunit alpha (Homo sapiens, UniProt Q9UQM7); assay: Navigating the Kinome. Panel member name: CAMK2A; assay type: functional
# [27] = biological target: Serine/threonine-protein kinase pim-1 (Homo sapiens, UniProt P11309); assay type: functional
# [28] = biological target: Tyrosine-protein kinase receptor TYRO3 (Homo sapiens, UniProt Q06418); assay type: functional;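 note: TYRO3 value obtained as one member of a kinome-wide profiling panel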
# [29] = biological target: Dual specificity mitogen-activated protein kinase kinase 2 (Homo sapiens, UniProt P36507); assay: Navigating the Kinome. Panel member name: MAP2K2; assay type: functional
# [30] = biological target: Leucine-rich repeat serine/threonine-protein kinase 2 (Homo sapiens, UniProt Q5S007); assay type: functional;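 note: value from a broad kinome-wide panel profiling study in which LRRK2 was one of the kinases tested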
# [31] = biological target: Dual specificity protein kinase CLK4 (Homo sapiens, UniProt Q9HAZ1); assay type: functional
# [32] = biological target: Fibroblast growth factor receptor 1 (Homo sapiens, UniProt P11362); assay type: functional
# [33] = biological target: Glycogen synthase kinase-3 beta (Homo sapiens, UniProt P49841); assay type: functional;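 note: value comes from a broad kinome profiling panel, with GSK3B as the panel member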
# [34] = biological target: Mitogen-activated protein kinase 9 (Homo sapiens, UniProt P45984); assay type: functional;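 note: value from a kinome panel profiling assay, MAPK9 panel entry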
# [35] = biological target: Tyrosine-protein kinase JAK2 (Homo sapiens, UniProt O60674); assay type: functional;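 note: JAK2 tested as one member of a kinase panel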
# [36] = biological target: Tyrosine-protein kinase Lck (Homo sapiens, UniProt P06239); assay type: functional;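 note: lck was assayed as one member of a kinase panel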
# [37] = biological target: Mitogen-activated protein kinase kinase kinase kinase 4 (Homo sapiens, UniProt O95819); assay type: functional
# [38] = biological target: Macrophage-stimulating protein receptor (Homo sapiens, UniProt Q04912); assay: Navigating the Kinome. Panel member name: MST1R; assay type: functional
# [39] = biological target: Tyrosine-protein kinase JAK3 (Homo sapiens, UniProt P52333); assay type: functional
# [40] = biological target: Glycogen synthase kinase-3 alpha (Homo sapiens, UniProt P49840); assay type: functional;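 note: GSK3A result taken from a broad kinome-wide kinase panel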
# [41] = biological target: ALK tyrosine kinase receptor (Homo sapiens, UniProt Q9UM73); assay type: functional;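 note: ALK tested as one member of a kinase panel screen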
# [42] = biological target: Dual specificity mitogen-activated protein kinase kinase 1 (Homo sapiens, UniProt Q02750); assay: Navigating the Kinome. Panel member name: MAP2K1; assay type: functional
# [43] = biological target: Vascular endothelial growth factor receptor 1 (Homo sapiens, UniProt P17948); assay type: functional;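 note: measured within a kinome-wide profiling panel, FLT1 as the panel member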
# [44] = biological target: Dual specificity protein kinase CLK2 (Homo sapiens, UniProt P49760); assay type: functional
# [45] = biological target: Leukocyte tyrosine kinase receptor (Homo sapiens, UniProt P29376); assay: Navigating the Kinome. Panel member name: LTK; assay type: functional
# [46] = biological target: G protein-coupled receptor kinase 5 (Homo sapiens, UniProt P34947); assay: Navigating the Kinome. Panel member name: GPRK5; assay type: functional
# [47] = biological target: Mitogen-activated protein kinase 8 (Homo sapiens, UniProt P45983); assay type: functional;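 note: value comes from one member of a kinome-wide kinase profiling panel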
# [48] = biological target: Tyrosine-protein kinase ABL1 (Homo sapiens, UniProt P00519); assay type: functional
# [49] = biological target: cAMP-dependent protein kinase catalytic subunit PRKX (Homo sapiens, UniProt P51817); assay type: functional
# [50] = biological target: Serine/threonine-protein kinase TAO1 (Homo sapiens, UniProt Q7L7X3); assay type: functional
# [51] = biological target: High affinity nerve growth factor receptor (Homo sapiens, UniProt P04629); assay type: functional;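 note: NTRK1 tested as one member of a kinome-wide profiling panel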
# [52] = biological target: cAMP-dependent protein kinase catalytic subunit alpha (Homo sapiens, UniProt P17612); assay type: functional
# Sequence of Receptor-type tyrosine-protein kinase FLT3 (P36888 whole entry): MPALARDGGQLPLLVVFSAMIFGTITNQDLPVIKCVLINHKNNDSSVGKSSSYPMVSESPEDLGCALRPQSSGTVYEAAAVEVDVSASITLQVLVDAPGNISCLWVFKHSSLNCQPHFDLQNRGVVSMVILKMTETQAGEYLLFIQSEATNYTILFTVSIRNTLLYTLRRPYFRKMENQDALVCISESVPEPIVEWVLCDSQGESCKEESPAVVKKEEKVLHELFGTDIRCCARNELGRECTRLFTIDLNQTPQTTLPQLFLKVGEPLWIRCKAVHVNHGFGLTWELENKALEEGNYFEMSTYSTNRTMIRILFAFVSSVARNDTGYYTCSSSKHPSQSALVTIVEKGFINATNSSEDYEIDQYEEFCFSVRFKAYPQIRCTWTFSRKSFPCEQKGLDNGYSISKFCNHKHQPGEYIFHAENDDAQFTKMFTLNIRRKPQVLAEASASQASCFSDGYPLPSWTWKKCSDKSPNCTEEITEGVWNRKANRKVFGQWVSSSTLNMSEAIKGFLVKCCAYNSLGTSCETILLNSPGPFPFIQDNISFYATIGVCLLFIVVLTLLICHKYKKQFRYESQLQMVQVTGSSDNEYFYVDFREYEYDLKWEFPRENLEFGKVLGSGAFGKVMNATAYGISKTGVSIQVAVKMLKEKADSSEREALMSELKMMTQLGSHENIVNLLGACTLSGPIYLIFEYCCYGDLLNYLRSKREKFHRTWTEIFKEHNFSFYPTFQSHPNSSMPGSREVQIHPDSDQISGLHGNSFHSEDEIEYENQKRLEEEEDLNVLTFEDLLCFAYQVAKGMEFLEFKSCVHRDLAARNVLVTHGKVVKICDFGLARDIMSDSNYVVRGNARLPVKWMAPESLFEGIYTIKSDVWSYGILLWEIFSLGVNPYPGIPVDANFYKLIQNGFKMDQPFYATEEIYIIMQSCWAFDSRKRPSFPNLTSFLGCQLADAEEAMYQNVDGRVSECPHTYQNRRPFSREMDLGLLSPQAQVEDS
# Sequence of Serine/threonine-protein kinase TAO1 (Q7L7X3 whole entry): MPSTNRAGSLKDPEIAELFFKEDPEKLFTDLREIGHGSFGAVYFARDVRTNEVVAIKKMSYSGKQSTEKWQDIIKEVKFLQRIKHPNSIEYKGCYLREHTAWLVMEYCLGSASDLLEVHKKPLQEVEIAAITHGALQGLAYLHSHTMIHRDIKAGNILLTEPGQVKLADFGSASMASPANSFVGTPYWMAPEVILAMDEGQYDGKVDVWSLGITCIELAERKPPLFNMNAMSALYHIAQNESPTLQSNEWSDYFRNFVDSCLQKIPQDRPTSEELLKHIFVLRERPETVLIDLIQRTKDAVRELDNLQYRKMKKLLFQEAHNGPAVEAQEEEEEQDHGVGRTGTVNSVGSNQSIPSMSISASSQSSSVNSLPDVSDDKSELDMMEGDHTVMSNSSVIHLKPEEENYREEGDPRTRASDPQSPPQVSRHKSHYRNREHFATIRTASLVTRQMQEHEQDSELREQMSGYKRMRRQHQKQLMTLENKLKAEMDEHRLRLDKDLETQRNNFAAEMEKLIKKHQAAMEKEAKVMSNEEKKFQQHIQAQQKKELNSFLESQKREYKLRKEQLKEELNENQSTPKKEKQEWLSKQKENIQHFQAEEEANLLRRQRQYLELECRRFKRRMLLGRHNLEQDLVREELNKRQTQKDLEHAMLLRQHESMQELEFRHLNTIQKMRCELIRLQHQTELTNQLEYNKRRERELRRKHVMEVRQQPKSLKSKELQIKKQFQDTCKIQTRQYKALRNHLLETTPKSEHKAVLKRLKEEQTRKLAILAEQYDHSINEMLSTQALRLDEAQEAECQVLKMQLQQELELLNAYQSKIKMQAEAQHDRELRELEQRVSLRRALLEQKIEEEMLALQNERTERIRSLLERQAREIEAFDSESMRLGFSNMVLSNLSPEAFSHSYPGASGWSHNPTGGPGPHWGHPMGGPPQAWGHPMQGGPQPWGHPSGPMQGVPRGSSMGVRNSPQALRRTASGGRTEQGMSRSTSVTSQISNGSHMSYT
# Sequence of cAMP-dependent protein kinase catalytic subunit PRKX (P51817 whole entry): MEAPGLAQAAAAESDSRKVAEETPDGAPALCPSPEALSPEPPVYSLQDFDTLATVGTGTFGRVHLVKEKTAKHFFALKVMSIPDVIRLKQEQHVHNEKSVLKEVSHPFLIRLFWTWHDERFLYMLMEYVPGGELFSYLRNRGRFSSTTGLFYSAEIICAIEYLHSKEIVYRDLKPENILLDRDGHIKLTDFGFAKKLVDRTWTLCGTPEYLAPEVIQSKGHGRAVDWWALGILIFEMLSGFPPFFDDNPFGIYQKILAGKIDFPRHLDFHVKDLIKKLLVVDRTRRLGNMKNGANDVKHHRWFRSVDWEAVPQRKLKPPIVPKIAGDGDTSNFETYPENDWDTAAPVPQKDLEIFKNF
# Sequence of Botulinum neurotoxin type F (P30996 1-436 limits assumed): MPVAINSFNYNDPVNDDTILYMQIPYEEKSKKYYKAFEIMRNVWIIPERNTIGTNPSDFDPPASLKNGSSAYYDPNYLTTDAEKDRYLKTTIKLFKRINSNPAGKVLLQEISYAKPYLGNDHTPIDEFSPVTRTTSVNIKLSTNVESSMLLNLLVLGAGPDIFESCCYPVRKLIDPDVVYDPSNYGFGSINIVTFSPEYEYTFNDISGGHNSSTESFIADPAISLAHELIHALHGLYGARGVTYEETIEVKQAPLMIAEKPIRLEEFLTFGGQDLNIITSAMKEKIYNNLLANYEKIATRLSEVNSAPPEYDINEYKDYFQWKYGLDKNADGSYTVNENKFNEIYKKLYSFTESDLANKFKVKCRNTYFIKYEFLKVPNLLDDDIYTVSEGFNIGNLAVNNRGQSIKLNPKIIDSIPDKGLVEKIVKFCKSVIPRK
# Sequence of Dual specificity mitogen-activated protein kinase kinase 2 (P36507 whole entry): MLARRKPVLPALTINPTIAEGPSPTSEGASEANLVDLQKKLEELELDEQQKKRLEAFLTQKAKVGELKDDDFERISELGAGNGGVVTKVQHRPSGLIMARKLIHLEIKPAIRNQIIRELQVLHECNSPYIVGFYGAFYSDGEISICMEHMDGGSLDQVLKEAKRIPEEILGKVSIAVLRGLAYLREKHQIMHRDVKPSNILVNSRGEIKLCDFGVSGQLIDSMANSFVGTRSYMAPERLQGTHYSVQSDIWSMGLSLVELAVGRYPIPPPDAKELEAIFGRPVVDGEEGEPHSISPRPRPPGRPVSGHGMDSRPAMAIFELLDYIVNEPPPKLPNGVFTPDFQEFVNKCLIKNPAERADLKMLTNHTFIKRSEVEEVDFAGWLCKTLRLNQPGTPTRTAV
# Sequence of Tyrosine-protein kinase ABL1 (P00519 whole entry): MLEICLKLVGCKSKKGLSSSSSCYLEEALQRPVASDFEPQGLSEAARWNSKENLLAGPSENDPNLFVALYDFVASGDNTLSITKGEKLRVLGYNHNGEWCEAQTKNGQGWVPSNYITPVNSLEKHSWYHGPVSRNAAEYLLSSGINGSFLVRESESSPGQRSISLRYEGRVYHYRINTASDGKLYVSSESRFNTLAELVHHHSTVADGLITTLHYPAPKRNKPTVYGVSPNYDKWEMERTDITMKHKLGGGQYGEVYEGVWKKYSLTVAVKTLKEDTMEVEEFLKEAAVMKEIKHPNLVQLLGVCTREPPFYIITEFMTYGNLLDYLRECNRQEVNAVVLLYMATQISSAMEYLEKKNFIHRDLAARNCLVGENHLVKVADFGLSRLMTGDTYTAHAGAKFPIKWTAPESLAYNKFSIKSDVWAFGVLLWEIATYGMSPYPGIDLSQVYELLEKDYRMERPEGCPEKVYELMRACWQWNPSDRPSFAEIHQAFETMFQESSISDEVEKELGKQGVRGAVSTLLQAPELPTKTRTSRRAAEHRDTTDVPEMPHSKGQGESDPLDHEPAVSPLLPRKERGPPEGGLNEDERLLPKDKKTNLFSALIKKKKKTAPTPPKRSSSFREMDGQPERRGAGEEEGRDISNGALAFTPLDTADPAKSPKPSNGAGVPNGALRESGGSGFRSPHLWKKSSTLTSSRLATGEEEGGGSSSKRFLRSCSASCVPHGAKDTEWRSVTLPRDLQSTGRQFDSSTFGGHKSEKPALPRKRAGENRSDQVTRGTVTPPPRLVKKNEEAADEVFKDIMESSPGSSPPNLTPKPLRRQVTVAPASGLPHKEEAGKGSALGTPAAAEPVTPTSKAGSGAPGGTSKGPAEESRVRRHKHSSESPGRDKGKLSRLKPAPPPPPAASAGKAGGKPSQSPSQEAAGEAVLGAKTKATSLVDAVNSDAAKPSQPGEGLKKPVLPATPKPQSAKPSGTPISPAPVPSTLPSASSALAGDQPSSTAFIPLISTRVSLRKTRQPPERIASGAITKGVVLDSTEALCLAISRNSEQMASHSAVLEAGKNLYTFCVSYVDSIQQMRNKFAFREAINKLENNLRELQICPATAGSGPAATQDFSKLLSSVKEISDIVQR
# Sequence of 5'-AMP-activated protein kinase catalytic subunit alpha-1 (Q13131 whole entry): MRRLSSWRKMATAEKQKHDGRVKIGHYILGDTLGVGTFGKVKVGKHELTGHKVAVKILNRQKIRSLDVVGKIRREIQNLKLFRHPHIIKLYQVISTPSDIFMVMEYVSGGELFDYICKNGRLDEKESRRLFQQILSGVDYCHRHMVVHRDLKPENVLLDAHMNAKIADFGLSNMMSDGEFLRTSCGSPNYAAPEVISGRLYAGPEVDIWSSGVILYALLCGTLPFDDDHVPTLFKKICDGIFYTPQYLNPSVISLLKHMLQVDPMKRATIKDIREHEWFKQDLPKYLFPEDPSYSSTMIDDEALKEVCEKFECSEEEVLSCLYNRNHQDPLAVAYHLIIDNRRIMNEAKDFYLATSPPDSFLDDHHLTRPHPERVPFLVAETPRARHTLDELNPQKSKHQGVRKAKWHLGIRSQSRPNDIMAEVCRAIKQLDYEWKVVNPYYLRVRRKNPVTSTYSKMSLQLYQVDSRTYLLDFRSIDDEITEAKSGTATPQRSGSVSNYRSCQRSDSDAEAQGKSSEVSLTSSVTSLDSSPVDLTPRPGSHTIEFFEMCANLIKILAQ
compound,measurement,setting,value
CC(=NNc1nc2ccccc2o1)c1cc2ccccc2cn1,EC50,Hexokinase-1,> 80 µM (inactive)
same,AC50,[1],175 nM (active)
same,AC50,[2],1.7 µM (active)
same,AC50,[3],16.9 µM (active)
same,IC50,Nonstructural protein 1,7.16 µM (active)
same,AC50,HEK293,88.7 nM (active)
same,EC50,[4],9.4 µM (active)
same,EC50,Lethal factor,20 µM (inactive)
same,EC50,[5],5.1 µM (active)
same,EC50,Hexokinase HKDC1,2.24 µM (active)
Cc1cc(O)nc2[nH]nc(-c3cccc(-c4ccc(C#N)cc4)c3)c12,Ki,Aurora kinase A,> 1.58 µM (inactive)
same,Ki,[6],> 5.01 µM (inactive)
same,Ki,[7],> 2.51 µM (inactive)
same,Ki,[8],> 5.01 µM (inactive)
same,Ki,[9],> 3.16 µM (inactive)
same,Ki,[10],> 3.98 µM (inactive)
same,Ki,[11],> 3.98 µM (inactive)
same,Ki,[12],> 2.51 µM (inactive)
same,Ki,[13],> 3.16 µM (inactive)
same,Ki,[14],> 3.16 µM (inactive)
same,Ki,[15],> 6.31 µM (inactive)
same,Ki,[16],> 2 µM (inactive)
same,Ki,[17],> 2.51 µM (inactive)
same,Ki,[18],> 6.31 µM (inactive)
same,Ki,[19],> 5.01 µM (inactive)
same,Ki,[20],> 1.58 µM (inactive)
same,Ki,[21],1 nM (active)
same,Ki,[22],> 3.98 µM (inactive)
same,Ki,[23],> 2.51 µM (inactive)
same,Ki,[24],> 3.16 µM (inactive)
same,Ki,[25],> 2.51 µM (inactive)
same,Ki,[26],> 7.94 µM (inactive)
same,Ki,[27],> 6.31 µM (inactive)
same,Ki,[28],> 3.16 µM (inactive)
same,Ki,[29],> 3.98 µM (inactive)
same,Ki,[30],> 2.51 µM (inactive)
same,Ki,[31],> 2.51 µM (inactive)
same,Ki,[32],> 3.98 µM (inactive)
same,Ki,[33],> 3.98 µM (inactive)
same,Ki,[34],> 3.98 µM (inactive)
same,Ki,[35],> 2.51 µM (inactive)
same,Ki,[36],> 6.31 µM (inactive)
same,Ki,[37],> 5.01 µM (inactive)
same,Ki,[38],> 3.98 µM (inactive)
same,Ki,[39],> 5.01 µM (inactive)
same,Ki,[40],3.98 µM (active)
same,Ki,[41],> 6.31 µM (inactive)
same,Ki,[42],> 3.16 µM (inactive)
same,Ki,[43],> 3.98 µM (inactive)
same,Ki,[44],> 3.98 µM (inactive)
same,Ki,[45],> 2.51 µM (inactive)
same,Ki,[46],> 3.98 µM (inactive)
same,Ki,[47],> 5.01 µM (inactive)
same,Ki,[48],> 3.98 µM (inactive)
same,Ki,[49],> 3.16 µM (inactive)
same,Ki,[50],> 6.31 µM (inactive)
same,Ki,[51],> 3.16 µM (inactive)
same,Ki,[52],> 1.26 µM (inactive)
